Results: article PMC10117725, “From an Hsp90 - binding protein to a peptide drug” (microLife, 2022)

Key:
Hsp90α = molecular target: T1, Hsp90α (Homo sapiens, UniProt P07900); assay type: binding; settings: dot blot, 2 µg blotted on membrane, 20 µg recombinant Hsp90α at 4°C overnight, α-Hsp90α immunodetection
T1 construct: purchased Abcam
Protocol: Two µg of each peptide was blotted (dot blot) directly on PDV nitrocellulose membrane and blocked with ROTI®Block (Carl Roth, Germany). After washing, the membrane was then incubated with 20 μg of recombinant Hsp90α (Abcam)/Lpl1-his protein at 4°C overnight. In case of interaction studies with Hsp90α, α-Hsp90α (produced in mouse, Abcam) was used as the primary antibody and for interaction studies with Lpl1-his, Anti-6X His tag antibody (also produced in mouse, Sigma-Aldrich, Germany) was used. Alkaline phosphatase conjugated goat-α-mouse IgG (Sigma-Aldrich, Germany) served as the secondary antibody. Detection was done using BCIP®/NBT solution (Sigma, Germany). Lpl1-his was isolated and purified as described in our previous paper (Tribelli et al. [2020]).

[1] = test system: F-actin levels in HaCaT cells; assay: F-actin measurement (ActinGreen 488 fluorescence) in HaCaT cells; assay type: cell-based, human; settings: 35 µg/ml peptide (L15 20 µM, L13 30 µM), geldanamycin 5 µM; 1.5 h; ActinGreen 488 fluorescence relative to control
Protocol: (§1) About 5 × 10^4 cells were seeded in black flat bottom 96 well cell culture microplate (Greiner, Germany) and incubated overnight. The cells were then incubated with peptides or geldanamycin for 1.5 h. After incubation, the cells were washed, permeabilised with 0.1% (v/v) Triton X-100 and stained with ActinGreen™ 488 ReadyProbes® (Thermo Fischer, Germany) for 30 min. After the staining, the cells were washed and measure for its fluorescence at Excitation/Emission: 495/518 nm (Luqman et al. [2020]).

[2] = test system: F-actin levels in N/TERT-1 cells; assay: F-actin measurement (ActinGreen 488 fluorescence) in N/TERT-1 cells; assay type: cell-based, human; settings: L15 20 µM, L13 30 µM, geldanamycin 5 µM; 1.5 h; relative to control
Protocol: as §1

[3] = test system: S. aureus USA300 invasion into N/TERT-1 cells; assay: S. aureus USA300 invasion into N/TERT-1 keratinocytes; assay type: cell-based, human; settings: pretreatment with L15 20 µM, L13 30 µM, geldanamycin 5 µM or α-Hsp90α antibody
Protocol: (§2) The invasion protocol was adapted from our previous papers (Nguyen et al. [2015], Tribelli et al. [2020]). About 5 × 10^5 Keratinocytes were seeded in a 24 well plate (Greiner, Frickenhausen, Germany) to attain a monolayer of ∼10^6 cells/well. Staphylococcusaureus was grown overnight at 37°C, centrifuged and suspended in invasion medium (DMEM with 10% FBS for HaCaT and K-SFM for NTERT-1 cells). The adherent keratinocytes were washed with PBS and supplemented with invasion medium followed by treatment with 20 µM of L15, 30 µM of L13, or 5 µM geldanamycin (Sigma-Aldrich, Germany) or monoclonal antibodies specific against Hsp90α (α‐Hsp90α, Abcam) for 1 h. After 1 h, 100 µl of bacterial suspension was added to each well to attain a MOI (multiplicity of infection) of 30 and incubated with cells for 1.5 h. Subsequently, the extracellular bacteria were killed with treatment of 2.5 μg/ml lysostaphin (Sigma-Aldrich, Germany) for 1.5 h. The cells were then washed, lysed, mechanically detached by scraping, diluted, and enumerated on TSA (Tryptic Soy Agar) plates to quantify the intracellular bacteria.

HaCaT cells = assay: MTT cytotoxicity in HaCaT cells; assay type: cell-based, human; settings: MTT, 24 h, 1–200 µM
Protocol: (§3) MTT (3-(4,5-dimethylthiazol-2-yl)-2,5-diphenyl tetrazolium bromide) assay was employed to analyze the cytotoxicity of peptides and geldanamycin to the cells. 5 × 10^5 cells were seeded in a 96 flat bottom well plate and incubated for 2.5 or 24 h at 37°C with 5% CO2. The cells were then treated with increasing concentration (0 to 200 µM) of peptides or geldanamycin for 24 h. After the incubation, 10 μl of the MTT labelling reagent is added to each well to attain a final concentration 0.5 mg/ml, followed by 4 h incubation. Metabolically active cells convert the yellow tetrazolium salt to purple formazan crystals, which were solubilized using the solubilization solution (DMSO) and measured for absorbance at λmax/λref–570/690 nm (Saising et al. [2018]).

[4] = test system: S. aureus USA300 internalization by HaCaT cells; assay: S. aureus USA300 invasion (internalization) into HaCaT keratinocytes; assay type: cell-based, human
Protocol: as §2, with “[…],” for “washed with PBS and supplemented with invasion medium followed by treatment with 20 µM of L15, 30 µM of L13,”

[5] = test system: S. aureus USA300 infected PBMCs; assay: Cytokine release of S. aureus USA300 infected PBMCs (ELISA); assay type: cell-based, human; settings: L15 20 µM, L13 30 µM, geldanamycin 5 µM, 20 h, vs unstimulated infected PBMCs
MONO-MAC-6 (MM6) cells = assay: MTT cytotoxicity in MM6 cells; assay type: cell-based, human; settings: 24 h, 1–200 µM
Protocol: as §3

[6] = test system: Galleria mellonella larvae; assay: Toxicity of tested doses to Galleria mellonella larvae
Protocol: (§4) Galleria mellonella larvae, purchased from Feeders & more GmbH, Germany, were sorted based on weight and used within one week. Ten larvae per group with weight average of 500 mg/larvae were injected with bacteria and/or peptides on its last proleg using a BD insulin syringe. The dosage used for the experiment were 60 mg/kg for peptides, 5 mg/kg of geldanamycin and 20 mg/kg for vancomycin. Each larva was injected with 10 µl of L15 (last left proleg) 1 h before administration of 10^6 cfu S. aureus (last right proleg). The larvae were maintained at 37°C and observed for mortality every day over the course of 5 days.

S. aureus Newman = assay: Galleria mellonella larvae infection model, S. aureus Newman; assay type: in vivo
Protocol: as §4

[7] = test system: phagocytosis by primary human CD14+ monocytes; assay: Phagocytosis of S. aureus USA300 by CD14+ monocytes; assay type: cell-based; settings: L15 20 µM, L13 30 µM, geldanamycin 5 µM, 60 min preincubation; MOI 30, 90 min; n = 4 donors; SEM
Protocol: Peripheral Blood Mononuclear cells (PBMCs) were isolated by density gradient centrifugation following the previous study (Nguyen et al. [2022]). From the pool of PBMCs, monocytes were isolated by positive selection with anti-human CD14 microbeads (Miltenyi Biotech, Bergisch-Gladbach, Germany) following a previously reported protocol (Nguyen et al. [2022]). The purity was analysed by flow cytometry on a BD Accuri C6 (BD Biosciences, Heidelberg, Germany) with anti-human CD14-FITC, CD45-PE and propidium iodide (BD Biosciences, Heidelberg, Germany) and ranged from 85% to 98%.
For the phagocytosis, 10^6 CD14^+ monocytes were seeded in 1 ml of medium (RPMI supplemented with L-Glutamine and 10% FCS) in a 12 well plate (Greiner, Germany). The cells were incubated with 20 µM of L15, 30 µM of L13, or 5 µM of Geldanamycin for 60 min at 37°C and 5% CO2 before addition of bacteria. For the phagocytosis assay, bacterial cells were resuspended in 100 µl RPMI medium at MOI of 30 and incubated with monocytes for 90 min. The cells were washed once with PBS and 0.5 ml of medium supplemented with 2.5 µg/ml of Lysostaphin was added for 90 min to remove the extracellular bacteria. Then, monocytes were washed twice with PBS and resuspended in 0.5 ml of milliQ dH2O. The cells were scraped, and the lysed solution was transferred into a new 1.5 ml Eppendorf tube for a 5 min sonication (frequency 80, power 100) at room temperature to prevent the bacterial cell clumping by using ultrasonic water bath Elmasonic P (Elma Schmidbauer Gmb, Singen, Germany). About 10 µl fractions of undiluted, 10^−1, 10^−2, and 10^−3 dilutions were inoculated on tryptic soy agar (TSA) plates and incubated overnight at 37°C. The numbers of internalized bacteria were determined based on the manual counting of bacterial colony forming units (cfu) recovered on the agar plates.

EMKNNKIIL [L17, Lpl1-derived peptide]
Interaction with Hsp90α (Hsp90α): No | Relative F-actin level in HaCaT [1]: 1.09 ± 0.20

COC1=C2C[C@@H](C)C[C@H](OC)[C@H](O)[C@@H](C)/C=C(\C)[C@H](OC(N)=O)[C@@H](OC)/C=C\C=C(/C)C(=O)NC(=CC1=O)C2=O [Geldanamycin, geldanamycin, reference compound]
relative F-actin content in N/TERT-1 cells [2]: 0.82 ± 0.03 | invasion of S. aureus USA300 into N/TERT-1 cells [3]: reduced USA300 invasion | concentration from which viability decreased gradually, HaCaT (HaCaT cells): ≥ 50 µM | decrease in uptake/invasion of S. aureus USA300 by HaCaT cells compared to untreated control ([4]; preincubation with L15 20 µM, L13 30 µM, geldanamycin 5 µM or α-Hsp90α antibody, MOI 30): approximately 75% | TNF-alpha production of infected PBMCs ([5]; n = 4): inhibited | IL-6 production of infected PBMCs ([5]; n = 5): inhibited | concentration from which viability decreased, MM6 (MONO-MAC-6 (MM6) cells): ≥ 10 µM | toxicity of tested doses to larvae ([6]; in vivo): not toxic to larvae | effect on survival of infected larvae (S. aureus Newman; geldanamycin 5 mg/kg 1 h before infection, strain not restated in the sentence): no or rather a negative effect on survival | decrease of phagocytosis of S. aureus into CD14+ monocytes [7]: no significant impact | Relative F-actin level in HaCaT [1]: 0.88 ± 0.03

DEIVKELRSRYNISTEKSPILKMHIDGDLKGSSVGYRKLEI DFSKRENSKLSVIEFLSYKPAKK [L26, Lpl1-derived peptide that increased S. aureus internalization]
increase of invasion into HaCaT ([4]; positive control peptides, S. aureus USA300): approximately 1.5 fold | Interaction with Hsp90α (Hsp90α): Yes | Relative F-actin level in HaCaT [1]: 1.25 ± 0.13

GKGNETKED [L1, Lpl1-derived peptide]
Interaction with Hsp90α (Hsp90α): No | Relative F-actin level in HaCaT [1]: 0.95 ± 0.49

NKPGEL [L8, Lpl1-derived peptide]
Interaction with Hsp90α (Hsp90α): No | Relative F-actin level in HaCaT [1]: 0.96 ± 0.05

CN[C@H](CC(C)C)C(=O)N[C@H]1C(=O)N[C@@H](CC(N)=O)C(=O)N[C@H]2C(=O)N[C@H]3C(=O)N[C@H](C(=O)N[C@H](C(=O)O)c4cc(O)cc(O)c4-c4cc3ccc4O)[C@H](O)c3ccc(c(Cl)c3)Oc3cc2cc(c3O[C@@H]2O[C@H](CO)[C@@H](O)[C@H](O)[C@H]2O[C@H]2C[C@](C)(N)[C@H](O)[C@H](C)O2)Oc2ccc(cc2Cl)[C@H]1O [vancomycin, reference compound]
toxicity of tested doses to larvae ([6]; peptides 60 mg/kg, geldanamycin 5 mg/kg, vancomycin 20 mg/kg): not toxic to larvae | larvae surviving on day 5, S. aureus Newman (S. aureus Newman; peptides 60 mg/kg, vancomycin 20 mg/kg, injected 1 h before 10^6 cfu, 37°C): 100%
